Results: US12521395B2, “Gem-disubstituted heterocyclic compounds and their use as IDH inhibitors” (NERVIANO MEDICAL SCIENCES S.R.L., priority 2019, dated 2026)
pIC50: −log10 of the molar value.

Molecular target: IDH1^R132C (Homo sapiens, UniProt O75874, R132C)
Assay: NADPH depletion assay (diaphorase/resazurin), IDH1 R132C
Format: biochemical
Settings: IDH1^R132C 2 nM, alpha-ketoglutarate 0.14 mM; read-out: IDH1^R132C IC50
Protocol: IDH mutated enzyme activity converting alpha-ketoglutarate to 2-hydroxyglutaric acid is measured using a NADPH depletion assay. In the assay the remaining cofactor is measured at the end of the reaction with the addition of a catalytic excess of diaphorase and resazurin, to generate a fluorescent signal in proportion to the amount of NADPH remaining. IDH1 WT enzyme as well as mutated isoforms IDH1^R132H, IDH1^R132C, and IDH2^R172K enzymes are commercially available proteins (see e.g. Sino Biological, Abcam, Active Motif or Creative BioMart).
IDH1^R132H homodimer enzyme are diluted to 8 nM, in 10 μL of Assay Buffer (150 mM NaCl, 50 mM Tris-HCl pH 7.6, 10 mM MgCl2, 0.001% Triton X-100, 4 mM β-mercaptoethanol); 0.2 μL of test compound, previously serially diluted 1 to 3, >10 experimental points from 1 mM in DMSO, is added and the mixture is incubated for 15 minutes at room temperature. The reaction is started with the addition of 10 μL of Substrate Mix (12 μM NADPH, 3.4 mM alpha-ketoglutarate in Assay Buffer) and the mixture is incubated for 60 minutes at room temperature. The reaction is terminated with the addition of 5 μl of Detection Buffer (100 μg/mL diaphorase, 30 μM resazurin, in IX Assay Buffer), and is incubated for 15 minutes before reading on a ViewLux as platereader at Ex544/Em590.
Compounds are assayed for their activity against IDH1^R132C following the same assay as above with the following modifications: IDH1^R132C and alpha-ketoglutarate final concentrations in the Assay Buffer is 2 nM and 0.14 mM, respectively.

IDH1^R132C, sequence (O75874 whole entry R132C): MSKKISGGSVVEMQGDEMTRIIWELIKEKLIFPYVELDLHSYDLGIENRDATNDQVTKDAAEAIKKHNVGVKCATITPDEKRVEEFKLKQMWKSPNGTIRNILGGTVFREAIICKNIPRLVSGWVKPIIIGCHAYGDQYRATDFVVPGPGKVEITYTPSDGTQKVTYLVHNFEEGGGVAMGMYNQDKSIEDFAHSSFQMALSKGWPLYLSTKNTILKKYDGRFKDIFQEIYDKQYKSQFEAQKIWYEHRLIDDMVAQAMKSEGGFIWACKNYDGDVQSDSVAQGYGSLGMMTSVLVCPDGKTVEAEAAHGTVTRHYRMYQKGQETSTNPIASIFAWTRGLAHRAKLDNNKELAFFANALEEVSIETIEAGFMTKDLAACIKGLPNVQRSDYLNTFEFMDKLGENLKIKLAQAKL

| SMILES | pIC50 |
| --- | --- |
| CC#CC(=O)N1CCN(C2(c3ccc([C@H](C)Nc4ncc5ccc(=O)n(C(C)C)c5n4)cc3)CCOCC2)CC1 [cpd 5, 2-{[(1S)-1-(4-{4-[4-(but-2-ynoyl)piperazin-1-yl]tetrahydro-2H-pyran-4-yl}phenyl)ethyl]amino}-8-(propan-2-yl)pyrido[2,3-d]pyrimidin-7(8H)-one] | 5.83 |
| C=CC(=O)N1CCN(C2(c3ccc([C@H](C)Nc4nc(C)c5ccc(=O)n(C(C)C)c5n4)cc3)CCOCC2)CC1 [cpd 13, 2-{[(1S)-1-{4-[4-(4-acryloylpiperazin-1-yl)tetrahydro-2H-pyran-4-yl]phenyl}ethyl]amino}-4-methyl-8-(propan-2-yl) pyrido[2,3-d]pyrimidin-7(8H)-one] | 7.27 |
| C=CC(=O)N1CCN(C2(c3ccc([C@H](C)Nc4ncc5c(C)cc(=O)n(C(C)C)c5n4)cc3)CCOCC2)CC1 [cpd 18, 2-{[(1S)-1-{4-[4-(4-acryloylpiperazin-1-yl)tetrahydro-2H-pyran-4-yl]phenyl}ethyl]amino}-5-methyl-8-(propan-2-yl) pyrido[2,3-d]pyrimidin-7(8H)-one] | 7.62 |
| C=C(C)C(=O)N1CCN(C2(c3ccc([C@H](C)Nc4ncc5ccc(=O)n(C(C)C)c5n4)cc3)CCOCC2)CC1 [cpd 21, 2-{[(1S)-1-(4-{4-[4-(2-methylacryloyl)piperazin-1-yl]tetrahydro-2H-pyran-4-yl}phenyl)ethyl]amino}-8-(propan-2-yl) pyrido[2,3-d]pyrimidin-7(8H)-one] | 6.04 |
| C=CC(=O)N1CCN(C2(c3ccc([C@H](C)Nc4ncc5ccc(=O)n(C(C)C)c5n4)nc3)CCOCC2)CC1 [cpd 27, 2-{[(1S)-1-{5-[4-(4-acryloylpiperazin-1-yl)tetrahydro-2H-pyran-4-yl]pyridin-2-yl}ethyl]amino}-8-(propan-2-yl)pyrido[2,3-d]pyrimidin-7(8H)-one] | 7.01 |
| C=CC(=O)N1CCN(C2(c3ccc(CNc4ncc5ccc(=O)n(C(C)C)c5n4)cc3)CCOCC2)CC1 [cpd 31, 2-({4-[4-(4-acryloylpiperazin-1-yl)tetrahydro-2H-pyran-4-yl]benzyl}amino)-8-(propan-2-yl)pyrido[2,3-d]pyrimidin-7(8H)-one] | 6.48 |
| C=CC(=O)N1CCN(C2(c3ccc([C@H](C)Nc4ncc5ccc(=O)n(C(C)C)c5n4)cc3)CCN(C)CC2)CC1 [cpd 32, 2-{[(1S)-1-{4-[4-(4-acryloylpiperazin-1-yl)-1-methylpiperidin-4-yl]phenyl}ethyl]amino}-8-(propan-2-yl)pyrido[2,3-d]pyrimidin-7(8H)-one] | 7.19 |
| C=CC(=O)N1CCN(C2(c3ccc([C@H](C)Nc4ncc5ccc(=O)n(C(CC)CC)c5n4)cc3)CCOCC2)CC1 [cpd 35, 2-{[(1S)-1-{4-[4-(4-acryloylpiperazin-1-yl)tetrahydro-2H-pyran-4-yl]phenyl}ethyl]amino}-8-(pentan-3-yl)pyrido[2,3-d]pyrimidin-7(8H)-one] | 8.40 |
| C=CC(=O)N1CCN(C2(c3ccc([C@H](C)Nc4nc(N(C)C)c5ccc(=O)n(C(C)C)c5n4)cc3)CCOCC2)CC1 [cpd 36, 2-{[(1S)-1-{4-[4-(4-acryloylpiperazin-1-yl)tetrahydro-2H-pyran-4-yl]phenyl}ethyl]amino}-4-(dimethylamino)-8-(propan-2-yl)pyrido[2,3-d]pyrimidin-7(8H)-one] | 6.01 |
| C=CC(=O)N1CCN(C2(c3ccc([C@H](C)Nc4nc(NC)c5ccc(=O)n(C(C)C)c5n4)cc3)CCOCC2)CC1 [cpd 37, 2-{[(1S)-1-{4-[4-(4-acryloylpiperazin-1-yl)tetrahydro-2H-pyran-4-yl]phenyl}ethyl]amino}-4-(methylamino)-8-(propan-2-yl)pyrido[2,3-d]pyrimidin-7(8H)-one] | 6.00 |
| CCN1CCN(C2(c3ccc([C@H](C)Nc4ncc5c(n4)N(CC)C(=O)OC5)cc3)CCOCC2)CC1 [cpd 45, 7-{[(1S)-1-{4-[4-(4-ethylpiperazin-1-yl)tetrahydro-2H-pyran-4-yl]phenyl}ethyl]amino}-1-ethyl-1,4-dihydro-2H-pyrimido[4,5-d][1,3]oxazin-2-one] | 5.98 |
| C=CC(=O)N1CCN(C(C)(CC)c2ccc([C@H](C)Nc3ncc4ccc(=O)n(C(C)C)c4n3)cc2)CC1 (stereo partly drawn) [cpd 46, 2-{[(1S)-1-{4-[2-(4-acryloylpiperazin-1-yl)butan-2-yl]phenyl}ethyl]amino}-8-(propan-2-yl)pyrido[2,3-d]pyrimidin-7(8H)-one] | 7.89 |
| C=C(F)C(=O)N1CCN(C2(c3ccc([C@H](C)Nc4ncc5ccc(=O)n(C(C)C)c5n4)cc3)CCOCC2)CC1 [cpd 54, 2-{[(1S)-1-(4-{4-[4-(2-fluoroacryloyl)piperazin-1-yl]tetrahydro-2H-pyran-4-yl}phenyl)ethyl]amino}-8-(propan-2-yl) pyrido[2,3-d]pyrimidin-7(8H)-one] | 6.03 |
| [2H]C([2H])([2H])C([2H])(n1c(=O)ccc2cnc(N[C@@H](C)c3ccc(C4(N5CCN(C(=O)C=C)CC5)CCOCC4)cc3)nc21)C([2H])([2H])[2H] [cpd 55, 2-{[(1S)-1-{4-[4-(4-acryloylpiperazin-1-yl)tetrahydro-2H-pyran-4-yl]phenyl}ethyl]amino}-8-[(^2H7)propan-2-yl]pyrido[2,3-d]pyrimidin-7(8H)-one] | 7.96 |
| C=CC(=O)NCC(=O)NC1(c2ccc([C@H](C)Nc3ncc4ccc(=O)n(C(C)C)c4n3)cc2)CCC(F)(F)CC1 [cpd 56, N-{2-[(4,4-difluoro-1-{4-[(1S)-1-{[7-oxo-8-(propan-2-yl)-7,8-dihydropyrido[2,3-d]pyrimidin-2-yl]amino}ethyl]phenyl}cyclohexyl)amino]-2-oxoethyl}prop-2-enamide] | 6.49 |
| C=CC(=O)N[C@H](C)C(=O)NC1(c2ccc([C@H](C)Nc3ncc4ccc(=O)n(C(C)C)c4n3)cc2)CCC(F)(F)CC1 [cpd 57, N2-acryloyl-N-(4,4-difluoro-1-{4-[(1S)-1-{[7-oxo-8-(propan-2-yl)-7,8-dihydropyrido[2,3-d]pyrimidin-2-yl]amino}ethyl]phenyl}cyclohexyl)-D-alaninamide] | 6.27 |
| C=CC(=O)N[C@@H](C)C(=O)NC1(c2ccc([C@H](C)Nc3ncc4ccc(=O)n(C(C)C)c4n3)cc2)CCC(F)(F)CC1 [cpd 58, N2-acryloyl-N-(4,4-difluoro-1-{4-[(1S)-1-{[7-oxo-8-(propan-2-yl)-7,8-dihydropyrido[2,3-d]pyrimidin-2-yl]amino}ethyl]phenyl}cyclohexyl)-L-alaninamide] | 6.45 |
| C=CC(=O)NCCNC1(c2ccc([C@H](C)Nc3ncc4ccc(=O)n(C(C)C)c4n3)cc2)CCOCC1 [cpd 59, N-{2-[(4-{4-[(1S)-1-{[7-oxo-8-(propan-2-yl)-7,8-dihydropyrido[2,3-d]pyrimidin-2-yl]amino}ethyl]phenyl}tetrahydro-2H-pyran-4-yl)amino]ethyl}prop-2-enamide] | 6.82 |
| CC(C)n1c(=O)ccc2cnc(N[C@@H](C)c3ccc(C4(N5CCN(C(=O)C(O)CO)CC5)CCC(F)(F)CC4)cc3)cc21 (stereo partly drawn) [cpd 60, 7-{[(1S)-1-(4-{1-[4-(2,3-dihydroxypropanoyl)piperazin-1-yl]-4,4-difluorocyclohexyl}phenyl)ethyl]amino}-1-(propan-2-yl)-1,6-naphthyridin-2(1H)-one] | 7.15 |
| C=CC(=O)N1CC(N(C)C2(c3ccc([C@H](C)Nc4cc5c(ccc(=O)n5C(C)C)cn4)cc3)CCC(F)(F)CC2)C1 [cpd 61, 7-{[(1S)-1-(4-{1-[(1-acryloylazetidin-3-yl)(methyl)amino]-4,4-difluorocyclohexyl}phenyl)ethyl]amino}-1-(propan-2-yl)-1,6-naphthyridin-2(1H)-one] | 8.22 |
| C=CC(=O)N1CC(N(C(C)=O)C2(c3ccc([C@H](C)Nc4cc5c(ccc(=O)n5C(C)C)cn4)cc3)CCC(F)(F)CC2)C1 [cpd 62, N-(1-acryloylazetidin-3-yl)-N-(4,4-difluoro-1-{4-[(1S)-1-{[2-oxo-1-(propan-2-yl)-1,2-dihydro-1,6-naphthyridin-7-yl]amino}ethyl]phenyl}cyclohexyl)acetamide] | 8.70 |
| C=CC(=O)N1CCN(C2(c3ccc([C@@H](C)Nc4cc5c(ccc(=O)n5C(C)C)cn4)cc3)CCC(F)(F)CC2)CC1 [cpd 63, 7-{[(1R)-1-{4-[1-(4-acryloylpiperazin-1-yl)-4,4-difluorocyclohexyl]phenyl}ethyl]amino}-1-(propan-2-yl)-1,6-naphthyridin-2(1H)-one] | 7.26 |
| CC(C)n1c(=O)ccc2cnc(N[C@@H](C)c3ccc(C4(N5CCN(C#N)CC5)CCOCC4)cc3)nc21 [cpd 65, 4-(4-{4-[(1S)-1-{[7-oxo-8-(propan-2-yl)-7,8-dihydropyrido[2,3-d]pyrimidin-2-yl]amino}ethyl]phenyl}tetrahydro-2H-pyran-4-yl)piperazine-1-carbonitrile] | 6.52 |
| C=CC(=O)NCCN(C(=O)C(F)(F)F)C1(c2ccc([C@H](C)Nc3ncc4ccc(=O)n(C(C)C)c4n3)cc2)CCOCC1 [cpd 66, N-{2-[(4-{4-[(1S)-1-{[7-oxo-8-(propan-2-yl)-7,8-dihydropyrido[2,3-d]pyrimidin-2-yl]amino}ethyl]phenyl}tetrahydro-2H-pyran-4-yl)(trifluoroacetyl)amino]ethyl}prop-2-enamide] | 7.12 |
